Reference: patent US20260347338A1, “PYRIMIDINE/PYRIDINE DERIVATIVES OR SALTS THEREOF AND PHARMACEUTICAL COMPOSITIONS COMPRISING THE SAME” (YUHAN CORPORATION, priority 2023, published 2026)
Structures can show the parent of a compound that is named as a salt.

These compounds were tested against T1, human recombinant HPK1 (Homo sapiens, UniProt Q92918) (assay: Inhibitory activity against human recombinant HPK1 (TR-FRET)). Conditions: ULight-p70S6K peptide, ATP at Km, room temperature, 1 hour, 0.32 to 1000 nM compound.
T1 construct: purchased BPS Bioscience
Type: biochemical
How it was run: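 IC50 classes A–D use 10, 50 and 100 nM cut-offs, derived from TR-FRET signal inhibition relative to DMSO controls. Human recombinant HPK1 phosphorylated ULight-p70S6K peptide at Km ATP for 1 h, room temperature, pH 7.4; test range 0.32–1000 nM final, detection with Eu-labelled antibody after EDTA quench.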

T1 sequence (Q92918 whole entry): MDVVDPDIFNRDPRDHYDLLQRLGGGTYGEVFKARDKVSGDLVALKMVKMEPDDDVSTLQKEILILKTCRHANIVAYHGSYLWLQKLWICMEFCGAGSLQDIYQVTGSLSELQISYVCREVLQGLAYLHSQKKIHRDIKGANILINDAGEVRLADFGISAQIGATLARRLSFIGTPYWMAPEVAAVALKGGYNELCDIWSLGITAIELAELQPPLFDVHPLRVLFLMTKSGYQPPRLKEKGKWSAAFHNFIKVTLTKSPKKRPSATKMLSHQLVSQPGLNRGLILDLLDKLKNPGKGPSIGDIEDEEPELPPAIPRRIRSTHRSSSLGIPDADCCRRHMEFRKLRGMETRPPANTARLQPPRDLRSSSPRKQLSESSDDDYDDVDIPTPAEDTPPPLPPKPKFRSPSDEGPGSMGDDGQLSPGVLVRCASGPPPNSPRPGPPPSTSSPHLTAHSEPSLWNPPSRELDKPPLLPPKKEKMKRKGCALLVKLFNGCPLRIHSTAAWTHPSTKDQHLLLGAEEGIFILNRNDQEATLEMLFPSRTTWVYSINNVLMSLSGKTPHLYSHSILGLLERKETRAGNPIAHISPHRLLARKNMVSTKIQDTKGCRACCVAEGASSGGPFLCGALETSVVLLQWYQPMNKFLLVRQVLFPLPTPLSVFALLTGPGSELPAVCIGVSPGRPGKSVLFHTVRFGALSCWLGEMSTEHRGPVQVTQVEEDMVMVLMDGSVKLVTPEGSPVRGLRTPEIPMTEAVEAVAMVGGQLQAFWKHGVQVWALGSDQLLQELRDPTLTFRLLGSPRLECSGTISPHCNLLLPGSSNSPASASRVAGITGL

| Compound | IC50 [µM] |
| --- | --- |
| COc1cccc(F)c1-c1nccc(Nc2cc(N3CC[C@@H](OC)[C@H](N)C3)c(-c3cnn(C(F)F)c3)cn2)n1 [Example 254, N-(4-((3R,4R)-3-amino-4-methoxypiperidin-1-yl)-5-(1-(difluoromethyl)-1H-pyrazol-4-yl)pyridin-2-yl)-2-(2-fluoro-6-methoxyphenyl)pyrimidin-4-amine] | ≤ 0.01 |
| COc1cccc(F)c1-c1nc(Nc2cc(N3CCC[C@H](O)C3)c(-c3cnn(C(F)F)c3)cn2)ccc1C(=O)N(C)C [Example 141, 6-((5-(1-(difluoromethyl)-1H-pyrazol-4-yl)-4-((S)-3-hydroxypiperidin-1-yl)pyridin-2-yl)amino)-2-(2-fluoro-6-methoxyphenyl)-N,N-dimethylnicotinamide] | > 0.1 |
| COc1cc(CO)cc(F)c1-c1nccc(Nc2cc(N3CCC[C@H](N)C3)c(-c3cnn(C(F)F)c3)cn2)n1 [Example 101, (S)-(4-(4-((4-(3-aminopiperidin-1-yl)-5-(1-(difluoromethyl)-1H-pyrazol-4-yl)pyridin-2-yl)amino)pyrimidin-2-yl)-3-fluoro-5-methoxyphenyl)methanol hydrochloride] | ≤ 0.01 |
| COc1cccc(F)c1-c1nccc(Nc2cc(N3CCC[C@H](N)C3)c(-c3ccc(C(=O)N(C)C)c(F)c3)cn2)n1 [Example 290, (S)-4-(4-(3-aminopiperidin-1-yl)-6-((2-(2-fluoro-6-methoxyphenyl)pyrimidin-4-yl)amino)pyridin-3-yl)-2-fluoro-N,N-dimethylbenzamide hydrochloride] | ≤ 0.01 |
| COc1cccc(F)c1-c1nccc(Nc2cc(N3CCC4(CCN(C)C4)CC3)c(-c3ccc(N4CCOCC4)nc3)cn2)n1 [Example 137, N-(2-(2-fluoro-6-methoxyphenyl)pyrimidin-4-yl)-4-(2-methyl-2,8-diazaspiro[4.5]decan-8-yl)-6′-morpholino-[3,3′-bipyridin]-6-amine] | ≤ 0.01 |
| 2-(2-fluoro-6-methoxyphenyl)-6-((4-((S)-3-hydroxypiperidin-1-yl)-5-(1-(1-methylpiperidin-4-yl)-1H-pyrazol-4-yl)pyrimidin-2-yl)amino)nicotinonitrile [Example 63] | 0.05 to 0.1 |
| COc1cccc(F)c1-c1nc(Nc2cc(N3CCC[C@H](N)C3)c(-c3cnn(CC(F)F)c3)cn2)ccc1[N+](=O)[O-] [Example 152, 4-((S)-3-aminopiperidin-1-yl)-5-(1-(2,2-difluoroethyl)-1H-pyrazol-4-yl)-N-(6-(2-fluoro-6-methoxyphenyl)-5-nitropyridin-2-yl)pyridin-2-amine hydrochloride] | ≤ 0.01 |
| COc1cccc(F)c1-c1nccc(Nc2cc(N3CC[C@@H](C)[C@H](N)C3)c(-c3cnn(C(F)F)c3)cn2)n1 [Example 204, N-(4-((3S,4R)-3-amino-4-methylpiperidin-1-yl)-5-(1-(difluoromethyl)-1H-pyrazol-4-yl)pyridin-2-yl)-2-(2-fluoro-6-methoxyphenyl)pyrimidin-4-amine hydrochloride] | ≤ 0.01 |
| COc1cccc(F)c1-c1nccc(Nc2cc(N3CCC[C@H](N)C3)c(-c3cccc(C(C)=O)c3)cn2)n1 [Example 291, (S)-1-(3-(4-(3-aminopiperidin-1-yl)-6-((2-(2-fluoro-6-methoxyphenyl)pyrimidin-4-yl)amino)pyridin-3-yl)phenyl)ethan-1-one hydrochloride] | ≤ 0.01 |
| COc1cccc(F)c1-c1nc(Nc2cc(N3CCC[C@H](N)C3)c(-c3ccc(N4CCOCC4)nc3)cn2)ccc1C#N [Example 323, 6-((4-((S)-3-aminopiperidin-1-yl)-6′-morpholino-[3,3′-bipyridin]-6-yl)amino)-2-(2-fluoro-6-methoxyphenyl)nicotinonitrile hydrochloride] | ≤ 0.01 |
| COc1cc(C(=O)N2CC[C@@H](F)C2)cc(F)c1-c1nccc(Nc2cc(N3CCC[C@H](O)C3)c(-c3cnn(C(F)F)c3)cn2)n1 [Example 233, (4-(4-((5-(1-(difluoromethyl)-1H-pyrazol-4-yl)-4-((S)-3-hydroxypiperidin-1-yl)pyridin-2-yl)amino)pyrimidin-2-yl)-3-fluoro-5-methoxyphenyl)((R)-3-fluoropyrrolidin-1-yl)methanone] | ≤ 0.01 |

Now from value to compound:

| IC50 [µM] | Compound |
| --- | --- |
| ≤ 0.01 | COc1cccc(F)c1-c1nccc(Nc2cc(N3CC[C@@H](F)[C@H](N)C3)c(-c3cnn(C(F)F)c3)cn2)n1 [Example 208, N-(4-((3R,4R)-3-amino-4-fluoropiperidin-1-yl)-5-(1-(difluoromethyl)-1H-pyrazol-4-yl)pyridin-2-yl)-2-(2-fluoro-6-methoxyphenyl)pyrimidin-4-amine hydrochloride] |
| ≤ 0.01 | COc1cc(F)cc(F)c1-c1nccc(Nc2cc(N3CCC[C@H](O)C3)c(C#Cc3cnn(C(F)(F)F)c3)cn2)n1 [Example 218, (S)-1-(2-((2-(2,4-difluoro-6-methoxyphenyl)pyrimidin-4-yl)amino)-5-((1-(trifluoromethyl)-1H-pyrazol-4-yl)ethynyl)pyridin-4-yl)piperidin-3-ol] |
| ≤ 0.01 | COc1cccc(F)c1-c1nccc(Nc2cc(N3CCC[C@H](N)C3)c(-c3ccc4c(c3)OCC(=O)N4C)cn2)n1 [Example 261, (S)-7-(4-(3-aminopiperidin-1-yl)-6-((2-(2-fluoro-6-methoxyphenyl)pyrimidin-4-yl)amino)pyridin-3-yl)-4-methyl-2H-benzo[b][1,4]oxazin-3(4H)-one hydrochloride] |
| ≤ 0.01 | COc1cccc(F)c1-c1nc(Nc2cc(N3CCC[C@H](N)C3)c(-c3cnn(CC(F)(F)F)c3)cn2)ccc1C#N [Example 318, 6-((4-((S)-3-aminopiperidin-1-yl)-5-(1-(2,2,2-trifluoroethyl)-1H-pyrazol-4-yl)pyridin-2-yl)amino)-2-(2-fluoro-6-methoxyphenyl)nicotinonitrile hydrochloride] |
| ≤ 0.01 | COc1cccc(F)c1-c1nc(Nc2cc(N3CCC[C@H](O)C3)c(C(=O)N[C@@H]3CC[C@H]3O)cn2)ccc1[N+](=O)[O-] [Example 197, 6-((6-(2-fluoro-6-methoxyphenyl)-5-nitropyridin-2-yl)amino)-N-((1R,2R)-2-hydroxycyclobutyl)-4-((S)-3-hydroxypiperidin-1-yl)nicotinamide] |
| ≤ 0.01 | COc1cccc(F)c1-c1nccc(Nc2cc(N3CCC[C@H](N)C3)c(-c3cnn(CC(F)(F)F)c3)nn2)n1 [Example 175, (S)-5-(3-aminopiperidin-1-yl)-N-(2-(2-fluoro-6-methoxyphenyl)pyrimidin-4-yl)-6-(1-(2,2,2-trifluoroethyl)-1H-pyrazol-4-yl)pyridazin-3-amine hydrochloride] |
| ≤ 0.01 | COc1cc(F)cc(F)c1-c1nccc(Nc2cc(N3CCC[C@H](N)C3)c(C#CC3(C)CCOCC3)cn2)n1 [Example 311, (S)-N-(4-(3-aminopiperidin-1-yl)-5-((4-methyltetrahydro-2H-pyran-4-yl)ethynyl)pyridin-2-yl)-2-(2,4-difluoro-6-methoxyphenyl)pyrimidin-4-amine] |
| ≤ 0.01 | COc1cccc(F)c1-c1nc(Nc2cc(N3CCC[C@H](O)C3)c(C(N)=O)cn2)ccc1N [Example 193, 6-((5-amino-6-(2-fluoro-6-methoxyphenyl)pyridin-2-yl)amino)-4-((S)-3-hydroxypiperidin-1-yl)nicotinamide] |
